Laboratory results from ChEMBL document CHEMBL5154808, “Novel β-Hairpin Antimicrobial Peptides Containing the β-Turn Sequence of -RRRF- Having High Cell Selectivity and Low Incidence of Drug Resistance” (J Med Chem, 2022).
Active and inactive are the calls of the source. No cut-off for these calls is given here.

How the values were obtained:
Staphylococcus aureus [1] = experiment: Antimicrobial activity against kanamycin-resistant Staphylococcus aureus ATCC 25923; assay type: functional
Cell membrane [2] = experiment: Induction of cytoplasmic membrane depolarization in […] assessed as increase in fluorescence intensity at 1 to 4 times MIC measured after 1 min by DiSC3-5 dye based fluorescence method; assay type: subcellular
Staphylococcus aureus [3] = experiment: Antibacterial activity against Staphylococcus aureus ATCC 25923 infected BALB/c mouse assessed as reduction in pulmonary inflammatory cell infiltration at 5 to 10 mg/kg, ip measured after 24 hrs by hematoxylin and eosin staining based assay; assay type: functional, organism-based; details: dose 5-10 mg/kg
Escherichia coli [4] = experiment: Antimicrobial activity against Escherichia coli ATCC 25922 assessed as adherence to cell membrane measured after 30 mins by SEM analysis; assay type: functional, organism-based
Escherichia coli [5] = experiment: Synergistic antibacterial activity against Escherichia coli ATCC 25922 assessed as fractional inhibitory concentration index incubated for 18 hrs in presence of rifampicin by checker board assay; assay type: functional
Cell membrane [6] = experiment: Induction of cytoplasmic membrane depolarization in Staphylococcus aureus ATCC 25923 assessed as increase in fluorescence intensity at 1 to 4 times MIC measured after 1 min by DiSC3-5 dye based fluorescence method; assay type: subcellular; details: DDE = dose-dependent effect
[7] = Stability in mouse serum assessed as half life at 10 mM measured upto 360 mins by RP-HPLC analysis; assay type: ADME, cell-free
Staphylococcus aureus [8] = experiment: Antibacterial activity against Staphylococcus aureus ATCC 25923 infected BALB/c mouse assessed as reduction in hepatic inflammatory cell infiltration at 5 to 10 mg/kg, ip measured after 24 hrs by hematoxylin and eosin staining based assay; assay type: functional, organism-based; details: dose 5-10 mg/kg
Cell membrane [9] = experiment: Induction of cytoplasmic membrane depolarization in Pseudomonas aeruginosa ATCC 27853 assessed as increase in fluorescence intensity at 1 to 4 times MIC measured after 1 min by DiSC3-5 dye based fluorescence method; assay type: subcellular
Pseudomonas aeruginosa = experiment: Antimicrobial activity against Pseudomonas aeruginosa ATCC 27853 assessed as reduction of bacterial growth incubated for 18 hrs by CLSI protocol based broth microdilution method; assay type: functional
[10] = Acute toxicity in ip dosed Kunming mouse assessed as lethal dose; assay type: organism-based; details: in vivo
Erythrocyte = experiment: Hemolytic activity in mouse red blood cells assessed as release of hemoglobin incubated for 1 hr by microplate reader method; assay type: toxicity, cell-based
Staphylococcus aureus [11] = experiment: Synergistic antibacterial activity against Staphylococcus aureus ATCC 25923 assessed as fractional inhibitory concentration index incubated for 18 hrs in presence of kanamycin by checker board assay; assay type: functional
[12] = test system: Staphylococcus epidermidis; experiment: Antimicrobial activity against Staphylococcus epidermidis ATCC 12228 assessed as reduction of bacterial growth incubated for 18 hrs by CLSI protocol based broth microdilution method; assay type: functional
Staphylococcus aureus [13] = experiment: Bactericidal activity against Staphylococcus aureus ATCC 25923 assessed as time required to kill bacteria at 2 times MIC by time-killing assay; assay type: functional
Lipopolysaccharide (LPS) = experiment: Binding affinity to LPS (unknown origin) assessed as reduction in bactericidal activity against Escherichia coli ATCC 25922 at 2 times MIC incubated for 2 hrs in presence of 32 ug/ml of LPS by competitive binding assay
Escherichia coli [14] = experiment: Synergistic antibacterial activity against Escherichia coli ATCC 25922 assessed as fractional inhibitory concentration index incubated for 18 hrs in presence of polymyxin B by checker board assay; assay type: functional
Staphylococcus aureus [15] = experiment: Antimicrobial activity against Staphylococcus aureus ATCC 25923 assessed as fold change in MIC incubated for 18 hrs in presence of 10% serum by CLSI protocol based broth microdilution method relative to control; assay type: functional
Escherichia coli [16] = experiment: Antimicrobial activity against Escherichia coli ATCC 25922 assessed as fold change in MIC incubated for 18 hrs in presence of 150 mM NaCl by CLSI protocol based broth microdilution method relative to control; assay type: functional
Escherichia coli [17] = experiment: Antimicrobial activity against Escherichia coli ATCC 25922 assessed as cell membrane breakage measured after 30 mins by SEM analysis; assay type: functional, organism-based
Staphylococcus aureus [18] = experiment: Antimicrobial activity against Staphylococcus aureus ATCC 25923 assessed as fold change in MIC incubated for 18 hrs in presence of 4.5 mM KCl by CLSI protocol based broth microdilution method relative to control; assay type: functional
Staphylococcus aureus [19] = experiment: Antimicrobial activity against Staphylococcus aureus ATCC 25923 assessed as disruption of biofilm formation measured after 2 hrs by SEM analysis; assay type: functional, organism-based
Staphylococcus aureus [20] = experiment: Antimicrobial activity against Staphylococcus aureus ATCC 25923 assessed as fold change in MIC incubated for 18 hrs in presence of 1 mM MgCl2 by CLSI protocol based broth microdilution method relative to control; assay type: functional
Escherichia coli [21] = experiment: Antimicrobial activity against kanamycin-resistant Escherichia coli ATCC 25922; assay type: functional
Cell membrane [22] = experiment: Induction of inner membrane permeabilization in Escherichia coli ML-35 ATCC 43587 at 1 to 4 times MIC by ONPG based assay
Staphylococcus aureus [23] = experiment: Antimicrobial activity against Staphylococcus aureus ATCC 25923 assessed as assessed as fold change in MIC incubated for 18 hrs in presence of 4 uM FeCl3 by CLSI protocol based broth microdilution method relative to control; assay type: functional
Escherichia coli [24] = experiment: Antimicrobial activity against Escherichia coli ATCC 25922 assessed as morphological changes measured after 4 hrs by SEM analysis; assay type: functional, organism-based
Klebsiella pneumoniae = experiment: Antimicrobial activity against Klebsiella pneumoniae ATCC 700603 assessed as reduction of bacterial growth incubated for 18 hrs by CLSI protocol based broth microdilution method; assay type: functional
Staphylococcus aureus [25] = experiment: Antimicrobial activity against Staphylococcus aureus ATCC 25923 assessed as reduction of bacterial growth at 2 times MIC incubated for 18 hrs in presence of chymotrypsin by CLSI protocol based broth microdilution method; assay type: functional, organism-based
Cell membrane [26] = experiment: Induction of outer membrane permeabilization in Pseudomonas aeruginosa ATCC 27853 by NPN fluorescent dye based assay; assay type: subcellular; details: DDE = dose-dependent effect
[27] = Cytotoxicity against human HK-2 cells assessed as reduction in cell viability incubated for 1 hr by resazurin based microplate reader method; assay type: toxicity
Escherichia coli [28] = experiment: Antimicrobial activity against Escherichia coli ATCC 25922 assessed as fold change in MIC incubated for 18 hrs in presence of 4.5 mM KCl by CLSI protocol based broth microdilution method relative to control; assay type: functional
Staphylococcus aureus [29] = experiment: Synergistic antibacterial activity against kanamycin-resisitant Staphylococcus aureus ATCC 25923 assessed as fractional inhibitory concentration index incubated for 18 hrs in presence of kanamycin by checker board assay; assay type: functional
Bacillus subtilis = experiment: Antimicrobial activity against Bacillus subtilis ATCC 23857 assessed as reduction of bacterial growth incubated for 18 hrs by CLSI protocol based broth microdilution method; assay type: functional
Escherichia coli [30] = experiment: Antimicrobial activity against rifampicin-resistant Escherichia coli ATCC 25922; assay type: functional
Escherichia coli [31] = experiment: Antimicrobial activity against Escherichia coli ATCC 25922 assessed as fold change in MIC incubated for 18 hrs in presence of 1 mM MgCl2 by CLSI protocol based broth microdilution method relative to control; assay type: functional
Staphylococcus aureus [32] = experiment: Antimicrobial activity against Staphylococcus aureus ATCC 25923 assessed as reduction of bacterial growth incubated for 18 hrs by CLSI protocol based broth microdilution method; assay type: functional
Escherichia coli [33] = experiment: Antimicrobial activity against Escherichia coli ATCC 25922 assessed as fold change in MIC incubated for 18 hrs in presence of 4 uM FeCl3 by CLSI protocol based broth microdilution method relative to control; assay type: functional

| Substance | MIC (Staphylococcus aureus [1]) [µM] | Activity (Cell membrane [2]) | Activity (Staphylococcus aureus [3]) | Activity (Escherichia coli [4]) | fractional inhibitory concentration index (FICI) (Escherichia coli [5]) | Activity (Cell membrane [6]) | half-life at 10000 µM [7] [h] | Activity (Staphylococcus aureus [8]) | Activity (Cell membrane [9]) | MIC (Pseudomonas aeruginosa) [µM] | LD50 [10] [mg/kg] | HC10 (Erythrocyte) [µM] | fractional inhibitory concentration index (FICI) (Staphylococcus aureus [11]) | MIC [12] [µM] | Time (Staphylococcus aureus [13]) [min] | Activity (Lipopolysaccharide (LPS)) | fractional inhibitory concentration index (FICI) (Escherichia coli [14]) | fold change (FC) (Staphylococcus aureus [15]) | fold change (FC) (Escherichia coli [16]) | Activity (Escherichia coli [17]) | other results |
| --- | --- | --- | --- | --- | --- | --- | --- | --- | --- | --- | --- | --- | --- | --- | --- | --- | --- | --- | --- | --- | --- |
| H-KWKWKRRRFKWKWK-NH2 | 4 | Active | Active | Active | 0.625 | Dde | 2.68 | Active | Active | 4 | 62.2 | > 256 | 0.5 | 4 | 90 | Active | 0.375 | 2 | 1 | Active | fold change (FC) (Staphylococcus aureus [18]): 1; Activity (Staphylococcus aureus [19]): Active; fold change (FC) (Staphylococcus aureus [20]): 1; MIC (Escherichia coli [21]): 4 µM; Activity (Cell membrane [22]): Active; fold change (FC) (Staphylococcus aureus [23]): 1; Activity (Escherichia coli [24]): Active; MIC (Klebsiella pneumoniae): 16 µM; Activity (Staphylococcus aureus [25]): Active; Activity (Cell membrane [26]): Dde; CC50 at 1 h [27]: > 128 µM; fold change (FC) (Escherichia coli [28]): 1; fractional inhibitory concentration index (FICI) (Staphylococcus aureus [29]): 0.5; MIC (Bacillus subtilis): 4 µM; MIC (Escherichia coli [30]): 4 µM; fold change (FC) (Escherichia coli [31]): 1; MIC (Staphylococcus aureus [32]): 8 µM; fold change (FC) (Escherichia coli [33]): 1 |
| H-RIRIRRRRFRIRIR-NH2 | 4 | Active | Active | Active | 1 | Dde | 7.7 | Active | Active | 4 | 77.1 | > 256 | 0.5625 | 4 | 30 | Active | 0.5 | 2 | 4 | Active | fold change (FC) (Staphylococcus aureus [18]): 1; Activity (Staphylococcus aureus [19]): Active; fold change (FC) (Staphylococcus aureus [20]): 2; MIC (Escherichia coli [21]): 4 µM; Activity (Cell membrane [22]): Active; fold change (FC) (Staphylococcus aureus [23]): 1; Activity (Escherichia coli [24]): Active; MIC (Klebsiella pneumoniae): 8 µM; Activity (Staphylococcus aureus [25]): Active; Activity (Cell membrane [26]): Dde; CC50 at 1 h [27]: 65.2 µM; fold change (FC) (Escherichia coli [28]): 2; fractional inhibitory concentration index (FICI) (Staphylococcus aureus [29]): 0.5625; MIC (Bacillus subtilis): 2 µM; MIC (Escherichia coli [30]): 4 µM; fold change (FC) (Escherichia coli [31]): 1; MIC (Staphylococcus aureus [32]): 4 µM; fold change (FC) (Escherichia coli [33]): 2 |
